We go through 20 compounds from patent US8501732B2, “Aminomethyl quinolone compounds” (Hoffmann-La Roche Inc., priority 2011, dated 2013).

The subject of assay [1] is phospho(Ser63)-c-jun in HK-2 cells. In words: Cell-Based Assay for JNK Inhibitors (in-cell ELISA, phospho(Ser63)-c-jun after TNFα). Conditions: HK-2 cells (human proximal tubule cells), 60 minutes compound, then 10 ng/mL TNFα for 30 minutes. Here is the method:
Cell-Based Assay for JNK Inhibitors
The cell-based assay employed the in-cell ELISA method to determine the ability of compounds to prevent the generation of phospho(Ser63)-c-jun in HK-2 cells (human proximal tubule cells) in response to stimulation with tumor necrosis factor α (TNFα). In brief, for quantification of phospho(Ser63)-c-jun, the cells (in 96-well format) were fixed and permeablized then incubated sequentially with a rabbit anti-phospho-c-jun First Antibody specific for the presence of the phospho-Ser63 epitope and a donkey anti-rabbit IgG Second Antibody linked to horseradish peroxidase (HRP) for colorimetric quantitation of binding. […] Blank wells received no TNFα stimulation or compound. Additional Control wells received TNFα stimulation, but no compound.
Stock cultures of HK-2 cells (ATCC, Manassas, Va.) were grown under a 5% CO2/[…] atmosphere at 37 degrees C. in Keratinocyte-SFM medium (KSFM, Invitrogen, Grand Island, N.Y.) containing 5 μg/L epidermal growth factor and 5 mg/L bovine pituitary extract (both supplied with the medium), additionally supplemented with 10% (v/v) fetal calf serum (FCS; Invitrogen, Grand Island, N.Y.) and 1% (v/v) antibiotic-antimycotic (ABAM: Sigma, St. Louis, Mo.). For assays, cells were seeded in collagen coated 96-well polystyrene plates (BD Biosciences, Franklin Lakes, N.J.) at a density of 40,000 cells/well and cultured for 24 h in the same medium (100 μL/well) followed by a further 16-24 h in 100 μL of similar medium, but without FCS. […] Plates were then allowed to stand at room temperature for 20 minutes before being washed with 200 μL/well of PBS. (Further steps were performed immediately or the plates were stored at 4 degrees C. and the assay completed the next day.) To each well was added 100 μL 1% (v/v) TritonX-100 (Sigma, St. Louis, Mo.) in PBS followed by 20 minutes standing at room temperature, washing with 200 μL/well PBS, the addition of 100 μL/well of Quenching buffer (1% (v/v) hydrogen peroxide (Sigma, St. Louis, Mo.) and 0.1% (w/v) sodium azide (Fisher Scientific, Fair Lawn, N.J.)) in PBS and a further 20 minutes at room temperature. Plates were then washed twice with 200 μL/well of 0.1% (v/v) Tween-20 (Teknova, Hollister, Calif.) in PBS before addition of 200 μL/well of 2% BSA/0.1% Tween-20 in PBS and a further 1 hour at room temperature. […] After a further one hour, rabbit anti-phospho-c-jun-Ser63 is added directly to the solution in the Blank wells resulting in 1:250 dilution of this antibody. Plates were then placed on a slowly rotating platform at 4 degrees C. overnight. Wells were then washed thrice with 200 μL/well PBS/0.1% Tween-20. After addition of the third wash, the plates were placed on a slowly rotating platform for 15 minutes at room temperature. The final PBS/Tween20 wash was then replaced with 100 μL/well of donkey anti-rabbit HRP-labeled Second Antibody (Jackson ImmunoResearch Laboratory, West Grove, Pa.) diluted 1:10,000 in Antibody Dilution Buffer and the plates placed on a slowly rotating platform for 1 hour at room temperature. Wells were then washed four times with 200 μL/well PBS/0.1% Tween-20, including slow rotation for 30 minutes for the third wash and 10 minutes for the final wash. The wells were then washed once with 200 μL PBS without Tween-20. […] Absorbance was determined at a 450 nm wavelength using a spectrophotometer (Molecular Devices SpectraMax 250).
(An ELISA detects its analyte on a solid surface through an enzyme-linked reagent.)

Another assay deals with JNK1 (Homo sapiens (Human), UniProt P45983). Nature of the assay: In Vitro JNK1 Assay (TR-FRET, phosphorylation of GST-c-Jun). Conditions: 0.2 nM active JNK1 kinase, 26.7 nM GST-c-Jun, 2 μM ATP, 30 min at room temperature. The format is biochemical. Put shortly:
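IC50 derived from percent inhibition across 10 serially diluted concentrations, with TR-FRET detection of phospho-c-Jun via an anti-phospho-c-Jun antibody after EDTA stop. Substrate was GST-c-Jun 1-79, reacted 30 min at room temperature in pH 7.0 HEPES buffer with MgCl2, DTT, vanadate and BSA.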
A general note: In TR-FRET formats the signal depends on donor and acceptor labels being close together.

Where a name gives a salt, the structure may show the parent alone.

Sequence of JNK1 (P45983 whole entry): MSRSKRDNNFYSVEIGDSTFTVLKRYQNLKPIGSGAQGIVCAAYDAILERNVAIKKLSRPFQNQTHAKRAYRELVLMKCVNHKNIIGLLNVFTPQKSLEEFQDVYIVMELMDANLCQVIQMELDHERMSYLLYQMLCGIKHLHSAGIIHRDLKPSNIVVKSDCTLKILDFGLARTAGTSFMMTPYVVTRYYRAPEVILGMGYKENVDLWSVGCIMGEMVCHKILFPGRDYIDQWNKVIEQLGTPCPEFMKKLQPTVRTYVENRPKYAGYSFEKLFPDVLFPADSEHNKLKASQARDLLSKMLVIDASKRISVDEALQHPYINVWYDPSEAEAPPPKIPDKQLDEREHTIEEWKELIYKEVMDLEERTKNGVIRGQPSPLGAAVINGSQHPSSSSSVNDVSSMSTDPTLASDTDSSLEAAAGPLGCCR

By EC50 is commonly meant the concentration at which the effect is half-maximal. A word on the IC50: it is the concentration needed to halve the response being measured. Consider `CN(C)C(=O)c1c(CNC(=O)c2ccc3ncsc3c2)c(=O)c2ccc(Cl)cc2n1-c1ccccc1` [Example I-16, 3-{[(Benzothiazole-6-carbonyl)-amino]-methyl}-7-chloro-4-oxo-1-phenyl-1,4-dihydro-quinoline-2-carboxylic acid dimethylamide], for which, in assay [1], the EC50 was determined as 35000 nM. The compound further came in with an IC50 against JNK1 of 66 nM.

Turning to `CN(C)C(=O)c1c(CNC(=O)c2ccc(S(C)(=O)=O)cc2)c(=O)c2ccc(Cl)cc2n1-c1ccccc1` [Example I-19, 7-Chloro-3-[(4-methanesulfonyl-benzoylamino)-methyl]-4-oxo-1-phenyl-1,4-di-hydro-quinoline-2-carboxylic acid dimethylamide], a half-maximal response in assay [1] (EC50) required 30000 nM. In addition, the IC50 on JNK1 was 180 nM.

In turn, `CN(C)C(=O)c1c(CNC(=O)c2ccn(Cc3ccccc3)c(=O)c2)c(=O)c2ccc(Cl)cc2n1-c1ccccc1` [Example I-22, 3-{[(1-Benzyl-2-oxo-1,2-dihydro-pyridine-4-carbonyl)-amino]-methyl}-7-chloro-4-oxo-1-phenyl-1,4-dihydro-quinoline-2-carboxylic acid dimethylamide] gave an EC50 in assay [1] of 25000 nM. On JNK1, this compound had an IC50 of 330 nM.

`CN(C)C(=O)c1c(CNC(=O)c2cnn(C)c2)c(=O)c2ccc(Cl)cc2n1-c1ccccc1` [Example I-23, 7-Chloro-3-{[(1-methyl-1H-pyrazole-4-carbonyl)-amino]-methyl}-4-oxo-1-phenyl-1,4-dihydro-quinoline-2-carboxylic acid dimethylamide] yielded an EC50 in assay [1] of 87000 nM. On JNK1, this compound yielded an IC50 of 780 nM.

In assay [1], `CN(C)C(=O)c1c(CNC(=O)c2ccc(N3CCC(CO)CC3)nc2)c(=O)c2ccc(Cl)cc2n1-c1ccccc1` [Example I-24, 4-Hydroxymethyl-3,4,5,6-tetrahydro-2H-[1,2′]bipyridinyl-5′-carboxylic acid (7-chloro-2-dimethylcarbamoyl-4-oxo-1-phenyl-1,4-dihydro-quinolin-3-ylmethyl)-amide] registered an EC50 of 11000 nM. The IC50 at JNK1 was 140 nM.

`CN(C)C(=O)c1c(CNC(=O)c2ccc(N3CCC(CCO)CC3)nc2)c(=O)c2ccc(Cl)cc2n1-c1ccccc1` [Example I-25, 4-(2-Hydroxy-ethyl)-3,4,5,6-tetrahydro-2H-[1,2′]bipyridinyl-5′-carboxylic acid (7-chloro-2-dimethylcarbamoyl-4-oxo-1-phenyl-1,4-dihydro-quinolin-3-ylmethyl)-amide] yielded an EC50 in assay [1] of 9600 nM. At JNK1, the IC50 worked out at 51 nM.

Regarding `CN(C)C(=O)c1c(CNC(=O)c2cnc(N3CCC(CO)CC3)s2)c(=O)c2ccc(Cl)cc2n1-c1ccccc1` [Example I-26], the EC50 in assay [1] was 14000 nM. Also, the IC50 at JNK1 came to 98 nM.

As for `CN(C)C(=O)c1c(CNC(=O)c2cnc(N3CCC(CCO)CC3)s2)c(=O)c2ccc(Cl)cc2n1-c1ccccc1` [Example I-27, 7-Chloro-3-[4({2-[4-(2-hydroxy-ethyl)-piperidin-1-yl]-thiazole-5-carbonyl}-amino)-methyl]-4-oxo-1-phenyl-1,4-dihydro-quinoline-2-carboxylic acid dimethylamide], a half-maximal effect in assay [1] (EC50) was put at 8000 nM. The IC50 against JNK1 is 82 nM.

In assay [1], `CN(C)C(=O)c1c(CNC(=O)c2ccc(N3CCCCC3)nc2)c(=O)c2ccc(Cl)cc2n1-c1ccccc1` [Example I-28, 3,4,5,6-Tetrahydro-2H-[1,2′]bipyridinyl-5′-carboxylic acid (7-chloro-2-dimethylcarbamoyl-4-oxo-1-phenyl-1,4-dihydro-quinolin-3-ylmethyl)-amide trifluoroacetate salt] returned an EC50 of 9700 nM. The compound further gave an IC50 against JNK1 of 91 nM.

In assay [1], `O=C(NCc1cn(-c2ccccc2)c2cc(Cl)ccc2c1=O)c1ccn(Cc2ccccc2)c(=O)c1` [Example I-29, 1-Benzyl-2-oxo-1,2-dihydro-pyridine-4-carboxylic acid (7-chloro-4-oxo-1-phenyl-1,4-dihydro-quinolin-3-ylmethyl)-amide] displayed an EC50 of 5000 nM. This compound came in with an IC50 at JNK1 of 13 nM.

The compound `Cn1cc(C(=O)NCc2cn(-c3ccccc3)c3cc(Cl)ccc3c2=O)cn1` [Example I-30, 1-Methyl-1H-pyrazole-4-carboxylic acid (7-chloro-4-oxo-1-phenyl-1,4-di hydro-quinolin-3-ylmethyl)-amide] gave an EC50 in assay [1] of 42000 nM. For the same compound, on JNK1, the IC50 was 18 nM.

In turn, `O=C(NCc1cn(-c2ccccc2)c2cc(Cl)ccc2c1=O)c1ccnc(N2CCOCC2)c1` [Example I-31, N-(7-Chloro-4-oxo-1-phenyl-1,4-dihydro-quinolin-3-ylmethyl)-2-morpholin-4-yl-isonicotinamide] gave an EC50 in assay [1] of 30000 nM. The IC50 against JNK1 amounted to 31 nM.

Turning to `O=C(NCc1cn(-c2ccccc2)c2cc(Cl)ccc2c1=O)c1ccnc(N2CCCC2)c1` [Example I-32, N-(7-Chloro-4-oxo-1-phenyl-1,4-dihydro-quinolin-3-ylmethyl)-2-pyrrolidin-1-yl-isonicotinamide], a half-maximal effect in assay [1] (EC50) was put at 29000 nM. Half-maximal inhibition against JNK1 (IC50) was put at 38 nM.

In assay [1], `O=C(NCc1cn(-c2ccccc2)c2cc(Cl)ccc2c1=O)c1ccc2nc[nH]c2c1` [Example I-33, 3H-Benzoimidazole-5-carboxylic acid (7-chloro-4-oxo-1-phenyl-1,4-dihydro-quinolin-3-ylmethyl)-amide] gave an EC50 of 100000 nM. Also, the IC50 against JNK1 came to 41 nM.

Regarding `O=C(NCc1cn(-c2ccccc2)c2cc(Cl)ccc2c1=O)c1ccn(Cc2ccc(Cl)cc2)c(=O)c1` [Example I-34, 1-(4-Chloro-benzyl)-2-oxo-1,2-dihydro-pyridine-4-carboxylic acid (7-chloro-4-oxo-1-phenyl-1,4-dihydro-quinolin-3-ylmethyl)-amide], in assay [1], it took 12000 nM to reach a half-maximal effect (EC50). The compound further gave an IC50 at JNK1 of 44 nM.

With `COc1ccc(C(=O)NCc2cn(-c3ccccc3)c3cc(Cl)ccc3c2=O)cn1` [Example I-35, N-(7-Chloro-4-oxo-1-phenyl-1,4-dihydro-quinolin-3-ylmethyl)-6-methoxy-nicotinamide], the EC50 in assay [1] turned out to be 100000 nM. The IC50 on JNK1 is 54 nM.

The compound `NS(=O)(=O)c1ccc(C(=O)NCc2cn(-c3ccccc3)c3cc(Cl)ccc3c2=O)cc1` [Example I-36, N-(7-Chloro-4-oxo-1-phenyl-1,4-dihydro-quinolin-3-ylmethyl)-4-sulfamoyl-benzamide] displayed an EC50 in assay [1] of 100000 nM. The IC50 against JNK1 is 55 nM.

In the case of `O=C(NCc1cn(-c2ccccc2)c2cc(Cl)ccc2c1=O)c1cnn(-c2ccccc2)c1` [Example I-37, 1-Phenyl-1H-pyrazole-4-carboxylic acid (7-chloro-4-oxo-1-phenyl-1,4-dihydro-quinolin-3-ylmethyl)-amide], a half-maximal effect in assay [1] (EC50) was put at 25000 nM. For the same compound, on JNK1, it took 72 nM to reach half-maximal inhibition (IC50).

In assay [1], `COc1cccc(Cn2ccc(C(=O)NCc3cn(-c4ccccc4)c4cc(Cl)ccc4c3=O)cc2=O)c1` [Example I-38, 1-(3-Methoxy-benzyl)-2-oxo-1,2-dihydro-pyridine-4-carboxylic acid (7-chloro-4-oxo-1-phenyl-1,4-dihydro-quinolin-3-ylmethyl)-amide] came in with an EC50 of 16000 nM. The same compound had an IC50 against JNK1 of 72 nM.

For the compound `O=C(NCc1cn(-c2ccccc2)c2cc(Cl)ccc2c1=O)c1ccn(Cc2ccccc2Cl)c(=O)c1` [Example I-39, 1-(2-Chloro-benzyl)-2-oxo-1,2-dihydro-pyridine-4-carboxylic acid (7-chloro-4-oxo-1-phenyl-1,4-dihydro-quinolin-3-ylmethyl)-amide], the EC50 in assay [1] was 10000 nM. Further, on JNK1, the midpoint of inhibition, the IC50, lay at 76 nM.
